Test results published in PubChem BioAssay (NCI).
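How tested: cells in 96-well plates exposed to compound for 48 hours at five concentrations. TGI: concentration producing complete growth inhibition.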

How the values were obtained:
Test in all cases: inhibition of tumour cell growth, NCI panel, 48 h
DU-145 prostate = tested on: DU-145 prostate
T-47D breast = tested on: T-47D breast
UO-31 renal = tested on: UO-31 renal
M14 melanoma = tested on: M14 melanoma
UACC-62 melanoma = tested on: UACC-62 melanoma
BT-549 breast = tested on: BT-549 breast
HS 578T breast = tested on: HS 578T breast
SNB-19 CNS = tested on: SNB-19 CNS
LOX IMVI melanoma = tested on: LOX IMVI melanoma
HCC-2998 colon = tested on: HCC-2998 colon
HCT-15 colon = tested on: HCT-15 colon
786-0 renal = tested on: 786-0 renal
HOP-62 NSCLC = tested on: HOP-62 NSCLC
SF-539 CNS = tested on: SF-539 CNS

For `C/C(=N\NC(=O)/C(C#N)=C\c1ccc(N(CCC#N)CCC#N)cc1)c1ccccc1`, the TGI (DU-145 prostate) was > 10 µM, the TGI (T-47D breast) was > 10 µM and the TGI (UO-31 renal) was > 10 µM. The TGI (M14 melanoma) was > 10 µM, the TGI (UACC-62 melanoma) was > 10 µM and the TGI (BT-549 breast) was > 10 µM. For the same compound, the TGI (HS 578T breast) was > 10 µM, the TGI (SNB-19 CNS) was > 10 µM and the TGI (LOX IMVI melanoma) was > 10 µM. For the same compound, the TGI (HCC-2998 colon) was > 10 µM, the TGI (HCT-15 colon) was > 10 µM and the TGI (786-0 renal) was > 10 µM. For the same compound, the TGI (HOP-62 NSCLC) was > 10 µM and the TGI (SF-539 CNS) was > 10 µM.
`CCC(CC)C(=O)OC[n+]1cccc(-c2c(COC(=O)NC(C)C)c(COC(=O)NC(C)C)c3n2CCC3)c1` was tested, and the TGI (DU-145 prostate) was > 100 µM, the TGI (T-47D breast) was > 100 µM and the TGI (UO-31 renal) was > 100 µM. The TGI (M14 melanoma) was > 100 µM, the TGI (UACC-62 melanoma) was > 100 µM and the TGI (BT-549 breast) was > 100 µM. The TGI (HS 578T breast) was > 100 µM, the TGI (SNB-19 CNS) was > 100 µM and the TGI (LOX IMVI melanoma) was > 100 µM. The TGI (HCC-2998 colon) was > 100 µM, the TGI (HCT-15 colon) was > 100 µM and the TGI (786-0 renal) was > 100 µM. For the same compound, the TGI (HOP-62 NSCLC) was > 100 µM and the TGI (SF-539 CNS) was > 100 µM.
For `O=c1oc2cc(O)ccc2c(O)c1C(c1ccccn1)c1c(O)c2ccc(O)cc2oc1=O`, the TGI (DU-145 prostate) was > 100 µM, the TGI (T-47D breast) was > 100 µM and the TGI (UO-31 renal) was > 100 µM. The TGI (M14 melanoma) was > 100 µM, the TGI (UACC-62 melanoma) was > 100 µM and the TGI (BT-549 breast) was > 100 µM. The TGI (HS 578T breast) was > 100 µM, the TGI (SNB-19 CNS) was > 100 µM and the TGI (LOX IMVI melanoma) was > 100 µM. For the same compound, the TGI (HCC-2998 colon) was > 100 µM, the TGI (HCT-15 colon) was > 100 µM and the TGI (786-0 renal) was > 100 µM. The TGI (HOP-62 NSCLC) was > 100 µM and the TGI (SF-539 CNS) was > 100 µM.
